According to ChEMBL document CHEMBL5653615 (J Biol Chem, 2013):

What was measured:
[1] = molecular target: Mitogen-activated protein kinase 8 (Homo sapiens) (UniProt P45983); experiment: Inhibition of human JNK1 at 18.6 nM by HotSpot assay relative to control
[2] = molecular target: Calcium/calmodulin-dependent protein kinase kinase 1 (Homo sapiens) (UniProt Q8N5S9); experiment: Inhibition of human CAMKK1 at 18.6 nM by HotSpot assay relative to control
[3] = molecular target: Homeodomain-interacting protein kinase 3 (Homo sapiens) (UniProt Q9H422); experiment: Inhibition of human HIPK3 at 18.6 nM by HotSpot assay relative to control
[4] = molecular target: Mitogen-activated protein kinase kinase kinase 10 (Homo sapiens) (UniProt Q02779); experiment: Inhibition of human MAP3K10 at 18.6 nM by HotSpot assay relative to control
Mitogen-activated protein kinase kinase kinase 10 (Homo sapiens), sequence (Q02779 whole entry, looked up): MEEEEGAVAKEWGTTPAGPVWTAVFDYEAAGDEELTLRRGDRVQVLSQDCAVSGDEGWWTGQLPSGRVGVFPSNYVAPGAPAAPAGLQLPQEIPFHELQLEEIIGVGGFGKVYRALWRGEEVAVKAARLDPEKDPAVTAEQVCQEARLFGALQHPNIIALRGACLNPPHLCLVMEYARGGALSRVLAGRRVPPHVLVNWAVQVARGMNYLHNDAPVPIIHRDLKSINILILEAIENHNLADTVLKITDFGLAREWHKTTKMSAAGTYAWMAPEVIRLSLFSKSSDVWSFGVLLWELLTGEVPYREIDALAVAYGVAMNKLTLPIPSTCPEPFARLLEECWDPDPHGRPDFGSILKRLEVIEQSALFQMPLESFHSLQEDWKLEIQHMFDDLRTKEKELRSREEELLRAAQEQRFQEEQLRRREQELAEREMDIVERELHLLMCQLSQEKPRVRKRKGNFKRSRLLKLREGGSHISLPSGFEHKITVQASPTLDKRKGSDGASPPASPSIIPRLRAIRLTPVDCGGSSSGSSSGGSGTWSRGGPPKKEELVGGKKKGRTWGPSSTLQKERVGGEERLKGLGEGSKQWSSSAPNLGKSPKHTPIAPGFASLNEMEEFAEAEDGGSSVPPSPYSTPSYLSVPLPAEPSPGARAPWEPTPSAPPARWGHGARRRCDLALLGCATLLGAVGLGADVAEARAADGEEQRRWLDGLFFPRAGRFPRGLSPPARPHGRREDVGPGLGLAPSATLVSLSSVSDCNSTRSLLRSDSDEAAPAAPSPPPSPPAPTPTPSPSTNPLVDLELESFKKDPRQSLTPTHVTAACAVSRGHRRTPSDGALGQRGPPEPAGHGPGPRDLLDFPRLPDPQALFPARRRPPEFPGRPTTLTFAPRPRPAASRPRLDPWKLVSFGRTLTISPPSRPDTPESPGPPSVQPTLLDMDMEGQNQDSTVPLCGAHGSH

[5] = molecular target: Serine/threonine-protein kinase MARK1 (Homo sapiens) (UniProt Q9P0L2); experiment: Inhibition of human MARK1 at 18.6 nM by HotSpot assay relative to control
Serine/threonine-protein kinase MARK1 (Homo sapiens), sequence (Q9P0L2 whole entry, looked up): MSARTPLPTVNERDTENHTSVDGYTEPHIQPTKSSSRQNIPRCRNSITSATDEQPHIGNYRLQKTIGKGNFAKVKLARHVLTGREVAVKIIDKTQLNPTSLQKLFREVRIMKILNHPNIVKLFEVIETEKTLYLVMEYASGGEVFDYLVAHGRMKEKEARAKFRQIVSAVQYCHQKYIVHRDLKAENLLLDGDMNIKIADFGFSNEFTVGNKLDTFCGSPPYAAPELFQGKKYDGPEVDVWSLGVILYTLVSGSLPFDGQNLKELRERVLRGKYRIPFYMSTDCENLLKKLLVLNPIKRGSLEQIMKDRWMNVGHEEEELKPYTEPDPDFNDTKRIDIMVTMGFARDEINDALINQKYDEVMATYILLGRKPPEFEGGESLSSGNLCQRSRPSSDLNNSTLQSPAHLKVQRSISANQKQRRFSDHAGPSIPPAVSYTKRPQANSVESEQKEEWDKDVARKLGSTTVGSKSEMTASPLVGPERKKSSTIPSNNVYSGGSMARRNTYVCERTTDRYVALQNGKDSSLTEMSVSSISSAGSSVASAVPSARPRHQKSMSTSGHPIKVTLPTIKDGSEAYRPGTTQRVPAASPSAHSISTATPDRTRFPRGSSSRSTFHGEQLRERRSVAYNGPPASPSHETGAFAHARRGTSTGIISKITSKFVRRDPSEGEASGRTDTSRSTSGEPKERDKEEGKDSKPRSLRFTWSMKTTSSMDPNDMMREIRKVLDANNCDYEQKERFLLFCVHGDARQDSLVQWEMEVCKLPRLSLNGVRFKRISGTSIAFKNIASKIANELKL

[6] = molecular target: T1, Serine/threonine-protein kinase 3 (Homo sapiens) (UniProt Q13188); experiment: Inhibition of human STK3 at 18.6 nM by HotSpot assay relative to control
T1 sequence (whole entry): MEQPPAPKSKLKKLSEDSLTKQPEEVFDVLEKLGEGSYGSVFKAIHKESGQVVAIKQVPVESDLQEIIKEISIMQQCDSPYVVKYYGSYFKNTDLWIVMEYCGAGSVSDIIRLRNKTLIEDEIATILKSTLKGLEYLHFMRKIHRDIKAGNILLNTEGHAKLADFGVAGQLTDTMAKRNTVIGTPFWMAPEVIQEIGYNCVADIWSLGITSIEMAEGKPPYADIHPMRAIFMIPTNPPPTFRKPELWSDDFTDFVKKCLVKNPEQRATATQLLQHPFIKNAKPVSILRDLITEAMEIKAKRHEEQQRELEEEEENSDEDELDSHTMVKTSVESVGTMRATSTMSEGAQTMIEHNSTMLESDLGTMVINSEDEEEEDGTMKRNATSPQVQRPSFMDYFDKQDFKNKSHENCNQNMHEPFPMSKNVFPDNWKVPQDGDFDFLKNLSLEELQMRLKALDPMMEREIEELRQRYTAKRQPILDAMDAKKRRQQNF

[7] = molecular target: Epidermal growth factor receptor (Homo sapiens) (UniProt P00533); experiment: Inhibition of human EGFR at 1.82 nM by HotSpot assay relative to control
[8] = molecular target: SRSF protein kinase 1 (Homo sapiens) (UniProt Q96SB4); experiment: Inhibition of human SRPK1 at 1.82 nM by HotSpot assay relative to control
[9] = molecular target: Tyrosine-protein kinase Srms (Homo sapiens) (UniProt Q9H3Y6); experiment: Inhibition of human SRMS at 1.82 nM by HotSpot assay relative to control
Tyrosine-protein kinase Srms (Homo sapiens), sequence (Q9H3Y6 whole entry): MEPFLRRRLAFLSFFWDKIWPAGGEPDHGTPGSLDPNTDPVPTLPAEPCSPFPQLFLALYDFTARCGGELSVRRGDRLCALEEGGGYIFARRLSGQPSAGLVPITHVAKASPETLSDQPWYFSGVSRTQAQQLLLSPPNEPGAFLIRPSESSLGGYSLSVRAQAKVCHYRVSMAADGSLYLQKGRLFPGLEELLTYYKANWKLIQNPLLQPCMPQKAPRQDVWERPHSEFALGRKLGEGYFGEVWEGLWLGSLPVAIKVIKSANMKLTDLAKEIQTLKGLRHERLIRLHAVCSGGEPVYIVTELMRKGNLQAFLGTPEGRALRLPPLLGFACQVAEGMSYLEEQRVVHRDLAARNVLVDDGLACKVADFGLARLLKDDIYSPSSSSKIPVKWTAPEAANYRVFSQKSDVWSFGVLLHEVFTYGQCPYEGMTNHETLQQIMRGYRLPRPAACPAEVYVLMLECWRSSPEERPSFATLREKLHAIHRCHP

[10] = molecular target: Serine/threonine-protein kinase PLK3 (Homo sapiens) (UniProt Q9H4B4); experiment: Inhibition of human PLK3 at 1.82 nM by HotSpot assay relative to control
[11] = molecular target: Mitogen-activated protein kinase 8 (Homo sapiens) (UniProt P45983); experiment: Inhibition of human JNK1 at 1.82 nM by HotSpot assay relative to control
[12] = molecular target: Protein kinase C delta type (Homo sapiens) (UniProt Q05655); experiment: Inhibition of human PKCd at 1.82 nM by HotSpot assay relative to control
Protein kinase C delta type (Homo sapiens), sequence (Q05655 whole entry, looked up): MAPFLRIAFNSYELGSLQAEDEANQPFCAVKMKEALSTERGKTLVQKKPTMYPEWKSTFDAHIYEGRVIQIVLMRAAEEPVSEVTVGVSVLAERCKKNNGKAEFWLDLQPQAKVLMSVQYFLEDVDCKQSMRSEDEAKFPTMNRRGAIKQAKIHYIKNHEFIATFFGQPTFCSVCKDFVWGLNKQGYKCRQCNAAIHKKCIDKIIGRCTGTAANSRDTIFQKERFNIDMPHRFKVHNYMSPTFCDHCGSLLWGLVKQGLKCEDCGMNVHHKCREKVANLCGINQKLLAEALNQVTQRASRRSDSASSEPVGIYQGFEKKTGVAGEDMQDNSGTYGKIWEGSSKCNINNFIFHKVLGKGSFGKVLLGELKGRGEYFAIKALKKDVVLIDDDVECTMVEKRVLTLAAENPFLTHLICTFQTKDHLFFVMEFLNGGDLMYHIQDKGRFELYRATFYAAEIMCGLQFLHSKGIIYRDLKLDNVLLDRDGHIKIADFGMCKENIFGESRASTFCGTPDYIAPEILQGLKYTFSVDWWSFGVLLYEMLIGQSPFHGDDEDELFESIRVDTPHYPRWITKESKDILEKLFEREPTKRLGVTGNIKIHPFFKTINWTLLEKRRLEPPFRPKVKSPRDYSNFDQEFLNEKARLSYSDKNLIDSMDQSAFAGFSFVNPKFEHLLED

[13] = molecular target: Mitogen-activated protein kinase 14 (Homo sapiens) (UniProt Q16539); experiment: Inhibition of human MAPK14 at 1.82 nM by HotSpot assay relative to control
Mitogen-activated protein kinase 14 (Homo sapiens), sequence (Q16539 whole entry): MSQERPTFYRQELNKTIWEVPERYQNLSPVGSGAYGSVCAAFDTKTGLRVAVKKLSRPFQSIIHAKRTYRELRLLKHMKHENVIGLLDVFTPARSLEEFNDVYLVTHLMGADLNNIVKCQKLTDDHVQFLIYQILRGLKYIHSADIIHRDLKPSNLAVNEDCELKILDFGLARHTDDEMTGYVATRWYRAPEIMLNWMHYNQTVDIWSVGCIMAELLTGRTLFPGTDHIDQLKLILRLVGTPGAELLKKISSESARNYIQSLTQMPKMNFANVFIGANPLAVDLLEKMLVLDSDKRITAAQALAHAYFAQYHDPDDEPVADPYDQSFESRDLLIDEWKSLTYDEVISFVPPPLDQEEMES

[14] = molecular target: Serine/threonine-protein kinase MARK1 (Homo sapiens) (UniProt Q9P0L2); experiment: Inhibition of human MARK1 at 1.82 nM by HotSpot assay relative to control
[15] = molecular target: Ribosomal protein S6 kinase alpha-5 (Homo sapiens) (UniProt O75582); experiment: Inhibition of human RPS6KA5 at 1.82 nM by HotSpot assay relative to control
Ribosomal protein S6 kinase alpha-5 (Homo sapiens), sequence (O75582 whole entry, looked up): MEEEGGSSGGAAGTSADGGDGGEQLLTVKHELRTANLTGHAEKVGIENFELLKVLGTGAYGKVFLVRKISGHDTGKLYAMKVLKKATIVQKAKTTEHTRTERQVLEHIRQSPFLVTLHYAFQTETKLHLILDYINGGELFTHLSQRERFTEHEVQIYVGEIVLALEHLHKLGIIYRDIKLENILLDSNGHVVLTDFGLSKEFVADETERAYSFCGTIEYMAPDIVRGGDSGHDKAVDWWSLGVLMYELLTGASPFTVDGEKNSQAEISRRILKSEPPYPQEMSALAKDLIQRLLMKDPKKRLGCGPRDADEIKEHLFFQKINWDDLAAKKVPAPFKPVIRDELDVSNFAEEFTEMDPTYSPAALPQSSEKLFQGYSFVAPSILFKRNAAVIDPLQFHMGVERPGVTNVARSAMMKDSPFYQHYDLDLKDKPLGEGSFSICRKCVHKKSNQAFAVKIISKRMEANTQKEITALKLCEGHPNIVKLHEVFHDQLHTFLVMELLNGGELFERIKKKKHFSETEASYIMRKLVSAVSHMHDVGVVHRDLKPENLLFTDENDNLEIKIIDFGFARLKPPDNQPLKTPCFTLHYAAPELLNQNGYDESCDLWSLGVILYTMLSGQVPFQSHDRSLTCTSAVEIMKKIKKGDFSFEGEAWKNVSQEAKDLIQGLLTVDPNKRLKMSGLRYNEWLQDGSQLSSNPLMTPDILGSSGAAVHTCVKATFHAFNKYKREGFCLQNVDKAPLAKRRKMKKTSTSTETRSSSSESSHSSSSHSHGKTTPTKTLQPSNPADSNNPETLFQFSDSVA

[16] = molecular target: Tyrosine-protein kinase Lyn (Homo sapiens) (UniProt P07948); experiment: Inhibition of human LYN at 1.82 nM by HotSpot assay relative to control
Tyrosine-protein kinase Lyn (Homo sapiens), sequence (P07948 2-512 limits assumed): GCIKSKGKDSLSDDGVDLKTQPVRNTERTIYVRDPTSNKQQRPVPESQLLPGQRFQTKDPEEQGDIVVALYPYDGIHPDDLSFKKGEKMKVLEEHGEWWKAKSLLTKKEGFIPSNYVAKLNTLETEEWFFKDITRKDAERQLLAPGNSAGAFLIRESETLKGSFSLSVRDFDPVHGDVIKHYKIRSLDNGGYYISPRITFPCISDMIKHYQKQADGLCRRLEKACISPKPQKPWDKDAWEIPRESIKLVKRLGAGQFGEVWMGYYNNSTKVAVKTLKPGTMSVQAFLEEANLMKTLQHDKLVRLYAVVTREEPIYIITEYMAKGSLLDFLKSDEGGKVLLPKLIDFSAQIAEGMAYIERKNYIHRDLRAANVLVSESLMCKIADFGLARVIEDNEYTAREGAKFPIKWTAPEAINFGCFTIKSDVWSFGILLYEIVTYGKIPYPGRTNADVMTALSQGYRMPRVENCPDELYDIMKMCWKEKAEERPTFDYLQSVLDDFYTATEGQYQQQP

[17] = molecular target: T2, Ephrin type-B receptor 1 (Homo sapiens) (UniProt P54762); experiment: Inhibition of human EPHB1 at 1.82 nM by HotSpot assay relative to control
T2 sequence (whole entry): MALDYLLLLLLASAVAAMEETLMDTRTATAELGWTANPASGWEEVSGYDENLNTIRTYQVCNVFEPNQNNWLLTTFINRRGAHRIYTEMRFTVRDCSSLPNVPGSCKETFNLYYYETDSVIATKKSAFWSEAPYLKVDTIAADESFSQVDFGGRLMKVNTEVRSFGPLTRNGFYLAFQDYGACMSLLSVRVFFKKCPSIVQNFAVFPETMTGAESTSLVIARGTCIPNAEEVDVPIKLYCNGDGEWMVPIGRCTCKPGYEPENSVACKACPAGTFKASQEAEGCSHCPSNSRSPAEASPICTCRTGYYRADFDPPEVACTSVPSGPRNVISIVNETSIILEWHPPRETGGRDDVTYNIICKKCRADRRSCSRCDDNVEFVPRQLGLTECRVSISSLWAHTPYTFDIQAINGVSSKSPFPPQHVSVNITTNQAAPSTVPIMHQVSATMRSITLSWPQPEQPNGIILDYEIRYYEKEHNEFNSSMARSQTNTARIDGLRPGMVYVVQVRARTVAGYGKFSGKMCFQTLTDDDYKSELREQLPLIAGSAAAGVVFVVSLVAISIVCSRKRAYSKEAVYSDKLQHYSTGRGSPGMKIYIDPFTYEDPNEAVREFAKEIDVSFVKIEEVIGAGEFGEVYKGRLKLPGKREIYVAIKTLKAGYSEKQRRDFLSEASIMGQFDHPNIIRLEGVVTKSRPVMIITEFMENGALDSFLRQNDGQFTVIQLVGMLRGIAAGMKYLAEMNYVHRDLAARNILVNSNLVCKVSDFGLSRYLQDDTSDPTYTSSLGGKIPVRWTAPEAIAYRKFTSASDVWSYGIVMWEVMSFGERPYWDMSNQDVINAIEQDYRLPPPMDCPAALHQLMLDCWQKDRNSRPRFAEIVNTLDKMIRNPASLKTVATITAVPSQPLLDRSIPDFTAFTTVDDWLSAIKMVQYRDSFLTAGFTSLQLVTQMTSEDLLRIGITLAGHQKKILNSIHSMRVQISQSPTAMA

Mitogen-activated protein kinase 8 (Homo sapiens), sequence (P45983 whole entry): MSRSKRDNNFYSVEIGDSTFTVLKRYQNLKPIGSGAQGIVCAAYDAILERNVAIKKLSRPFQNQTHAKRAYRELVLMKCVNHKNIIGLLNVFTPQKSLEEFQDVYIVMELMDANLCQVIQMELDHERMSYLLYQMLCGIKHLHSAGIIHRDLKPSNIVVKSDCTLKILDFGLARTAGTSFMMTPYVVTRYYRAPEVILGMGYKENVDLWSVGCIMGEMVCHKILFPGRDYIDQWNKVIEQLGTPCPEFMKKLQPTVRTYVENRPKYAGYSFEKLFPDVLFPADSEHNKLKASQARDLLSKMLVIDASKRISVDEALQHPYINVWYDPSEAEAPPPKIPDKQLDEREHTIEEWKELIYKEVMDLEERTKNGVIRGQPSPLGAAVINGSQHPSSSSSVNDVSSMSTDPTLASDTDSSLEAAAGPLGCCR

SMILES	inhibition [1] [%]	inhibition [2] [%]	inhibition [3] [%]	inhibition [4] [%]	inhibition [5] [%]	inhibition [6] [%]	inhibition [7] [%]	inhibition [8] [%]	inhibition [9] [%]	inhibition [10] [%]	inhibition [11] [%]	inhibition [12] [%]	inhibition [13] [%]	inhibition [14] [%]	inhibition [15] [%]	inhibition [16] [%]	inhibition [17] [%]
C[C@]1(O)C[C@@H](c2nc(-c3ccc4ccc(-c5ccccc5)nc4c3)c3c(N)nccn32)C1	-1.1	5.54	-5.3	-0.06	-7.27	-2.45	–	–	–	–	–	–	–	–	–	–	–
C[C@@]1(C(=O)Nc2ccc(F)nc2)CCCN1c1nc(Nc2cc(C3CC3)n[nH]2)c2cccn2n1	–	–	–	–	–	–	-6.78	-4.32	-3.77	2.72	-1.19	-1.35	-2.94	-3.41	-3.72	3.66	2.28
